Legend:
FoxM1B/C mRNA = experiment: Downregulation of FoxM1B/C mRNA by RT-qPCR in human fibroblasts; type: cell-based; settings: Fibroblast, 24 hours, Hill fit, read-out: EC50 for decline of FoxM1B/C mRNAs lacking exon 9
Protocol: (§1) FIGS. 1A, 1B and 1C. Induction of alternative splicing of FoxM1 towards FoxM1A in fibroblasts. Human fibroblasts were incubated with cpds. 1-4 at different doses for 24 hours, and changes in FoxM1A RNA (containing exon A2) and FoxM1B/C (lacking exon A2) mRNA expression were assessed by RT-qPCR. Dose response curves were fitted to a Hill binding equation to estimate the EC50. FIG. 1A., upregulation of FoxM1A mRNA; FIG. 1B., downregulation of FoxM1B/C mRNA; FIG. 1C., Correlation of EC50 values for FoxM1A upregulation and FoxM1B/C downregulation. Data represent means±SEM of 4 independent observations.
(§2) To investigate an effect on splicing of FoxM1, human fibroblasts were treated for 24 hours with cpds. 1-4 in dose response, and analysed by RT-qPCR for presence of mRNA including (FoxM1A) or excluding (FoxM1B/C) the Δ9 exon. The resulting dose response curves were fitted to a Hill binding equation. […] 1, 2, 3 and 4, respectively. […] 1, 2, 3 and 4, respectively.
(§3) Fibroblasts, at 10000 cells per cm^2 were treated with varying doses of compounds ([…]) for 24 hours. RNA extraction was performed as per instructions mentioned in the Ambion® Cells-to-CT™ Kits from Applied Biosystems®. RNA samples were frozen at −20° C. until further analysis. Relative expression levels of FoxM1A or FoxM1B/C along with GAPDH for internal control, was measured using one-step multiplex reverse transcription-polymerase chain reaction (RT-PCR). TaqMan® FAM probes were used for relative quantitation of FoxM1A or FoxM1B/C expression levels and TaqMan® VIC probes were used for relative quantitation of human GAPDH levels. The fidelity of the amplification methods was determined using the ΔΔCt relative quantification method for quantitative PCR.

FoxM1A mRNA = experiment: Upregulation of FoxM1A mRNA by RT-qPCR in human fibroblasts; type: cell-based; settings: Fibroblast, 24 hours, Hill fit, read-out: EC50 for increased expression of FoxM1A mRNA including exon 9
Protocol: as §1, §2, §3

human fibroblasts [1] = experiment: Cell Index (cellular impedance, xCELLigence) in fibroblasts; type: cell-based; settings: up to 120 hours, 75% cut-off
Protocol: (§4) FIGS. 2A, 2B and 2C. Induction of proliferation arrest and cell death by cpds. Alternating FoxM1 splicing towards FoxM1A in fibroblasts. Human fibroblasts were incubated with cpds. 1-4 at different doses for 5 days (120 hours), and changes in cellular impedance (Cell Index) were assessed online. Data are expressed as delta Cell Index after normalization for the starting value of each well. Data at 72, 96 and 120 hour time points (see arrows) were averaged for quantification. FIG. 2A, Micronuclei induction (MNT) in fibroblasts with increasing doses of cpd. 1-4; FIG. 2B, Dose-dependent induction of cytotoxicity by cpds. 1-4. expressed as % of untreated control after 24 hours. A cut-off at 75% (ED75%, dashed line) defined the concentration at which a meaningful impact on proliferation and cell survival was observed. […] 1-4. expressed as % of untreated control. […]
(§5) For investigation of the effect of altered FoxM1 expression on micronucleus induction (MNT) and cell survival, human fibroblasts were treated for up to 120 hours with cpds. 1-4 in dose response, and MNT, cytotoxicity or Cell Index were assessed on the xCELLigence platform, monitoring proliferation rates and cell death online. To define a quantitative measure for cytotoxic effects, a 2% cut-off for MNT induction (FIG. 2A), a 75% cut-off for cell survival (EC75%), and a 75% cut-off was estimated (ED75%). […]

[2] = tested on: Human BT474 breast cancer cells; experiment: Western blot, actin protein in BT474 breast cancer cells; type: cell-based; settings: BT474, 10 μM
Protocol: (§6) Upregulation of FoxM1A protein correlates with cytotoxicity in breast cancer cells. Human BT474 breast cancer cells were treated with cpd. 2 at 10 μM for 1 or 2 days under proliferating conditions (in the presence of serum), and total protein extracts analyzed by SDS PAGE and Western Blot for FoxM1A and actin protein levels. To assess if increase in FoxM1A protein by alternative splicing of FoxM1 towards FoxM1A induces cell death in a cancer condition, human breast cancer cells (BT474) were treated to modulate FoxM1 expression, and FoxM1A protein levels were assessed at day 1 and 2 of treatment. On day 1 and 2 under control conditions, FoxM1A was detectable by Western Blot, but at low concentrations. Treatment with cpd. […] 2 at 10 μM, whereas FoxM1A levels were increased in the same samples by nearly 3-fold. When normalized to actin, FoxM1A protein levels increased by 28-fold by treatment with cpd. 2 at 10 μM. […] Data represent means±SEM of 3 independent observations. Statistical comparison was performed by one-way ANOVA followed by Dunnet's post-hoc test. *, p<0.05, ***, p<0.001.
(§7) Human myoblasts were acquired from ECACC, BT474 cells were obtained from ATCC, and were cultivated according to supplier protocols. […] Fluorescence was acquired with the Odyssey imaging system (Licor Biosciences), FoxM1A intensity was normalized for actin. Data were analyzed using GraphPad software.

human fibroblasts [3] = experiment: Micronuclei induction (MNT) in fibroblasts; type: cell-based; settings: dose response, 2% cut-off
Protocol: as §4, §5

human fibroblasts [4] = experiment: Cytotoxicity in fibroblasts; type: cell-based; settings: dose response, 75% cut-off, 24 hours
Protocol: as §4, §5

FoxM1A protein [5] = experiment: Western blot, FoxM1A protein in BT474 breast cancer cells; type: cell-based, human; settings: BT474, 10 μM
Protocol: as §6
Human myoblasts were acquired from ECACC, BT474 cells were obtained from ATCC, and were cultivated according to supplier protocols. For experimental purpose, human myoblasts were cultivated for 5 days and were treated with varying doses of compounds (0.1-10 μM). BT474 cells were cultivated for up to 2 days and treated with compounds at 10 μM. For Western blot analyses, myoblast cells treated over 5 days or BT474 cells treated for 2 days were lysed in boiling Laemmli buffer (Bio-Rad) containing 100 mM dithiothreitol. SDS PAGE blots were probed with rabbit-anti FoxM1 antibody (Cell Signaling Technology, 1:1000), goat anti-Actin (Santa Cruz Biotechnology, 1:20000) and Alexa680/800 secondary antibodies (Molecular Probes, 1:10,000). Fluorescence was acquired with the Odyssey imaging system (Licor Biosciences), FoxM1A intensity was normalized for actin. Data were analyzed using GraphPad software.

human primary myoblasts [6] = experiment: Western blot, actin protein in differentiating (non-proliferating) human myoblasts; type: cell-based; settings: differentiating conditions (no serum), 5 days, doses up to 10 μM
Protocol: (§8) FIGS. 6A and 6B. No change in FoxM1A protein and no cytotoxicity in non-proliferating myoblasts. Human myoblasts were treated with cpd. 3 (0.1, 1 and 10 μM) for 5 days under differentiating conditions (in the absence of serum), and total protein extracts analyzed by SDS PAGE and Western Blot for FoxM1A and actin protein levels. FIG. 6A, FoxM1A and actin Western blots from samples treated without (control) or with cpd. 3 (0.1, 1 and 10 μM). Note that FoxM1A protein was undetectable; FIG. 6B, Protein levels of actin. Data represent means±SEM of 3 independent observations. Statistical comparison was performed by one-way ANOVA followed by Dunnet's post-hoc test.
(§9) To assess if alternative splicing of FoxM1 towards FoxM1A is present also in cells that are not proliferating, the same human primary myoblasts were differentiated to investigate if FoxM1 expression is also present and can be modulated similarly under those conditions. Under differentiating conditions, FoxM1A was undetectable by Western Blot (FIG. 6A). Treatment with cpd.
as §7

human primary myoblasts [7] = experiment: Western blot, actin protein (surrogate for cell number) in proliferating human myoblasts; type: cell-based; settings: proliferating conditions (serum), 5 days, doses up to 10 μM
Protocol: (§10) FIGS. 5A, 5B and 5C. Upregulation of FoxM1A protein correlates with cytotoxicity in myoblasts. Human myoblasts were treated with cpd. 3 (0.1, 1 and 10 μM) for 5 days under proliferating conditions (in the presence of serum), and total protein extracts analyzed by SDS PAGE and Western Blot for FoxM1A and actin protein levels. FIG. 5A, FoxM1A and actin Western blots from samples treated without (control) or with cpd. 3 (0.1, 1 and 10 μM); FIG. 5B, Protein levels of actin (surrogate for cell number); FIG. 5C, FoxM1A/actin ratio. Data represent means±SEM of 3 independent observations. Statistical comparison was performed by one-way ANOVA followed by Dunnet's post-hoc test. *, p<0.05, **, p<0.01, ***, p<0.001.
(§11) To assess if alternative splicing of FoxM1 towards FoxM1A results in meaningful changes in the protein levels and cell death, human primary myoblasts were treated under proliferating conditions to modulate FoxM1 expression and evaluate its consequence. Under proliferative conditions, FoxM1A was detectable by Western Blot, but at low concentrations […]. Treatment with cpd. […]
as §7

FoxM1A protein [8] = experiment: Western blot, FoxM1A protein in differentiating (non-proliferating) human myoblasts; type: cell-based; settings: differentiating conditions (no serum), 5 days, doses up to 10 μM
Protocol: as §8, §9, §7

FoxM1A protein [9] = experiment: Western blot, FoxM1A protein in proliferating human myoblasts; type: cell-based; settings: proliferating conditions (serum), 5 days, highest dose (10 μM)
Protocol: as §10, §11, §7

SMILES	EC50 (FoxM1B/C mRNA) [nM]	EC50 (FoxM1A mRNA) [nM]	Potency in reduction of Cell Index (human fibroblasts [1])	Reduction of actin protein ([2]; day 1) [%]	Reduction of actin protein ([2]; day 2)	Potency in MNT (micronucleus induction) (human fibroblasts [3])	Potency in cytotoxicity (human fibroblasts [4])	Increase of FoxM1A protein levels normalized to actin (FoxM1A protein [5]) [fold]	Effect on FoxM1A protein (FoxM1A protein [5]; day 1)	Increase of FoxM1A protein levels (FoxM1A protein [5]; day 2 (same samples)) [fold]	Actin protein level compared to controls (human primary myoblasts [6])	Reduction of actin protein level compared to controls (human primary myoblasts [7]) [fold]	FoxM1A levels normalized to actin (FoxM1A protein [8])	Increase of FoxM1A protein level normalized to actin (FoxM1A protein [9]) [fold]
CCN1CCC(c2cc(C)c3nc(-c4cc5c(C)nc(C)cn5n4)cc(=O)n3c2)CC1 [Compound 1, 2-(4,6-dimethylpyrazolo[1,5-a]pyrazin-2-yl)-7-(1-ethylpiperidin-4-yl)-9-methyl-4H-pyrido[1,2-a]pyrimidin-4-one]	724	246	–	–	–	–	–	–	–	–	–	–	–	–
CCc1nc(C)cn2nc(-c3cc(=O)n4cc(C5=CCNCC5)cc(C)c4n3)cc12 [Compound 2, 2-(4-ethyl-6-methylpyrazolo[1,5-a]pyrazin-2-yl)-9-methyl-7-(1,2,3,6-tetrahydropyridin-4-yl)-4H-pyrido[1,2-a]pyrimidin-4-one]	14	16	most potent	18	more than 90%	most potent	most potent	28	did not have any effect	~3	–	–	–	–
Cc1cn2nc(-c3cc(=O)n4cc(N5CCN(C)CC5)ccc4n3)cc2c(C)n1 [Compound 3, 2-(4,6-dimethylpyrazolo[1,5-a]pyrazin-2-yl)-7-(4-methylpiperazin-1-yl)-4H-pyrido[1,2-a]pyrimidin-4-one]	3540	1210	–	–	–	–	–	–	–	–	not altered	6	undetectable	30
Cc1cn2nc(-c3cc(=O)n4cc(N5CCNCC5)ccc4n3)cc2c(C)n1 [Compound 4, 2-(4,6-dimethylpyrazolo[1,5-a]pyrazin-2-yl)-7-(piperazin-1-yl)-4H-pyrido[1,2-a]pyrimidin-4-one]	104	68	most potent	–	–	most potent	most potent	–	–	–	–	–	–	–
